Structures are written as SMILES.

In one assay the test system is HEK293T cells. The experiment in a line: Live cell fluorescence imaging and flow cytometry of DPP-2 and DPP-3 in HEK293T cells. The assay is classed as cell-based, human. The settings on record: for effect of inhibitor on DPP-3 signal: 1 μM PalmB, 1 μM ML348, 1 or 5 μM ML349 (FIGS. 10, 11). The procedure:
HEK293T (650,000 cells per dish) cells were plated with 1.5 mL of Dulbecco's Modified Eagle Medium (DMEM) (High Glucose, 10% fetal bovine serum (FBS)) in a 35 mm glass bottom dish (D35-10-1.5-N; Cellvis, Mountain View, Calif., United States of America) 24 hrs prior to imaging. 30 min before the addition of the DPP probe, the cell culture media was removed and cells were washed with 1 mL of Delbecco's phosphate-buffered saline (DPBS). The media was then replaced with 1 mL of DMEM containing 1 μM Hoechst 33342 and either 0.1% DMSO carrier as a control, 1 or 2 μM Palm B, 0.1, 1.0, or 5 μM ML348, and incubated for 30 min at 37° C. and 5% CO2. The media was removed, the cells were washed with 1 mL of Live Cell Imaging Solution (Thermo Fisher Scientific, Waltham, Mass., United States of America), and 1 mL of 1 μM DPP-2 or DPP-3 in Live Cell Imaging Solution was added to each plate. For ML348 0.1, 1.0, or 5 μM was added along with DPP-2 or DPP-3. After incubation for 15 min at 37° C. and 5% CO2, images were obtained on an inverted epi-fluorescence microscope (Olympus IX83; Olympus Corporation, Tokyo, Japan) attached with EMCCD camera (Photometrics EVOLVE™ Delta; Photometrics, Tucson, Ariz., United States of America) with 40× oil objective (N/A 1.3) for DPP-2 (excitation filter 500/20, dichroic chroma 89007, emission filter 535/30, exposure time 200 ms, EM gain 25), Hoechst 33342: (excitation filter 402/15, emission filter 455/50, dichroic chroma 89013, exposure time 30 ms, EM gain 25), and brightfield (exposure time 5 ms, EM gain 5), and for DPP-3 (exposure time 500 ms, EM gain 150), Hoechst 33342: (exposure time 30 ms, EM gain 25), and brightfield (exposure time 20 ms, EM gain 5). Analyses were performed in ImageJ. For data analysis, the average fluorescence intensity per image in each experimental condition was obtained by selecting regions of interest (ROIs) in the brightfield image. For display, the data were normalized to the average fluorescence intensity of the control conditions. Each experiment was repeated at least three separate times with identical results.
Cells were plated on a 10 cm dish with 10 mL of DMEM/High Glucose (10% FBS, 1% P/S, L-Glutamine, Sodium pyruvate) 36-48 hours prior to the day of experiment and maintained at 37° C., 5% CO2 so as to obtain 80-90% confluency. Cells were washed with DPBS and trypsinized with 1 mL 0.05% Trypsin. 5 mL of DMEM/High Glucose (10% FBS, L-Glutamine, Sodium pyruvate) was added and cells were spun down at 1200 rpm for 3 min. Media was discarded and cells were resuspended in 5 mL of Live Cell Imaging Solution and again spun down at 1200 rpm for 3 min. The cells pellets obtained were resuspended in 3-5 mL of Live Cell Imaging Solution and divided into 500 μL aliquots. The aliquots were treated with either 0.2% DMSO carrier or 1 μM of PalmB/ML348 or 1 μM/5 μM of ML349 inhibitor. After 30 min of incubation at room temperature, 1 μL of 2.5 mM DPP-3 in DMSO was added to each aliquot for a final concentration of 5 μM, and the solutions were mixed. After 5 min incubation at room temperature, fluorescence signal in FITC channel was measured for 10000 cells (5000 for HeLa experiments) on a LSR-Fortessa 4-15 HTS (BD digital instrument, 488 nm laser with 530/30 nm filter for FITC; BD, Franklin Lakes, N.J., United States of America). For analyzing DPP2 in HEK293T cells, the aliquots were treated with either 0.2% DMSO carrier or 2 μM of PalmB, 5 or 20 μM of ML348/ML349 and then analyzed by the protocol as mentioned above. Data was analyzed by FlowJo software version 10.0.8. For comparison of A431 starved versus non-starved, parallel 10 cm dishes of A431 cells were plated in 10 mL of DMEM (high glucose, 10% FBS, 1% P/S), and grown for 36 h. The growth media was removed, and replaced by 10 mL of either DMEM (High glucose) with 10% FBS to maintain “growth” conditions, or DMEM (High glucose) without FBS respectively for “starvation” conditions, and incubated for 14 h. […]
A general note: Flow cytometry measures light scatter and fluorescence of single cells or particles in a stream.

The subject of the next assay is human colon organoids. The assay can be described thus: Epifluorescent imaging of RDP-2 with human colon organoids. The assay is classed as cell-based. As to conditions: 40 μM inhibitor 30 min, 5 μM RDP-2. The procedure: At least 24 h before imaging experiments, cultured colon organoids were split using a 25G needle and 1 mL syringe, pelleted, and 50-100 organoids per well were re-plated in eight-well chambered slides (20 μL droplets/well; 250 μL organoid growth media; Cellvis, Mountain View, Calif., United States of America) for treatment and imaging. 30 min before the addition of RDP-2, the cell culture media was removed and cells were washed with 300 μL of serum-free FluoroBrite DMEM (Gibco, Gaithersburg, Md., United States of America; High Glucose, Glutamax, no FBS). […] After incubation for 10 min at 37° C. and 5% CO2, the cells were washed with 300 μL Live Cell Imaging Solution and 300 μL of Live Cell Imaging Solution containing DMSO or the appropriate inhibitor was added to the cells immediately before images were obtained on an inverted epi-fluorescence microscope (Olympus IX83; Olympus Corporation, Tokyo, Japan) attached with EMCCD camera (Photometrics EVOLVE™ Delta, Photometrics, Tucson, Ariz., United States of America) with 40× oil objective (N/A 1.3) for RDP-2 (excitation filter 1 430/24 nm, dichroic chroma 89007, emission filter 1 470/24 nm, exposure time 150 ms, EM gain 100, excitation filter 2 480/20 nm, dichroic chroma 49014, emission filter 2 575/40 nm, exposure time 75 ms, EM gain 75), brightfield (exposure time 50 ms, EM gain 30). […]

As for `COc1ccc(N2CCN(C(=O)c3cc4c(s3)-c3ccccc3S(=O)(=O)C4)CC2)cc1` [ML349], the “effect of inhibitor on DPP-3 signal” value with HEK293T cells is “not substantially perturbed”. Besides, in the assay on HEK293T cells (5 μM inhibitor), the “effect of inhibitor on DPP-2 fluorescent signal” value is “perturbed”.

Turning to `CCCCCCCCCC[C@@H]1C(=O)O[C@H]1CCc1ccc(OC)c(OC)c1` [PalmB, palmostatin B], in the assay on HEK293T cells, the “effect of inhibitor on DPP-3 signal” value is “lower amounts of PalmB or ML348 were needed to perturb the signal”. Besides, in the assay on HEK293T cells (2 μM inhibitor), the “effect of inhibitor on DPP-2 fluorescent signal” value is on record as “perturbed”. In the assay with human colon organoids, the “inhibition / decrease of measured S-depalmitoylation, RDP-2” value is “about 50%”.

As to `O=C(CN1CCN(C(=O)c2ccco2)CC1)Nc1cc(C(F)(F)F)ccc1Cl` [ML348], the “effect of inhibitor on DPP-3 signal” value in the assay on HEK293T cells is given as “lower amounts of PalmB or ML348 were needed to perturb the signal”. Also, the “effect of inhibitor on DPP-2 fluorescent signal” value with HEK293T cells (5 μM inhibitor) was “perturbed”. Moreover, in the assay on human colon organoids, the “inhibition / decrease of measured S-depalmitoylation, RDP-2” value was “about 20%”.

The values are drawn from patent US10413583B2, “Synthetic substrates for enzymes that catalyze reactions of modified cysteines and related methods” (The University of Chicago, priority 2016, dated 2019).
